Assay results reported in ChEMBL document CHEMBL1201862, “PubChem BioAssay data set” (2004).
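Values below derive from 48-hour exposures of cells grown in 96-well plates, with endpoints linearly interpolated between the two concentrations bracketing the appropriate inhibition level. At the GI50, growth is halved.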 The source made the active and inactive calls. No stated cut-off is given here; in the data, active = GI50 up to about 1.1 µM and inactive = higher.

Columns and labels:
Experiment in all cases: inhibition of tumour cell growth, NCI panel, 48 h
CCRF-CEM = tested on: CCRF-CEM
COLO 205 = tested on: COLO 205
EKVX = tested on: EKVX
HT-29 = tested on: HT-29
IGROV-1 = tested on: IGROV-1
KM12 = tested on: KM12
M14 = tested on: M14
NCI-H522 = tested on: NCI-H522
OVCAR-4 = tested on: OVCAR-4
OVCAR-8 = tested on: OVCAR-8
RXF 393 = tested on: RXF 393
SF-268 = tested on: SF-268
SF-295 = tested on: SF-295
SK-OV-3 = tested on: SK-OV-3
UACC-257 = tested on: UACC-257
UO-31 = tested on: UO-31

Measured: GI50

COC(=O)C(=O)C(C(=O)C(=O)Nc1cccc(C(C)=O)c1)c1nc2ccc([N+](=O)[O-])cc2nc1O (stereo unspecified)
inactive: CCRF-CEM > 100 µM | COLO 205 > 100 µM | EKVX > 100 µM | HT-29 > 100 µM | IGROV-1 > 100 µM | KM12 > 100 µM | M14 > 100 µM | NCI-H522 > 100 µM | OVCAR-4 > 100 µM | OVCAR-8 > 100 µM | RXF 393 > 100 µM | SF-268 > 100 µM | SF-295 > 100 µM | SK-OV-3 > 100 µM | UACC-257 > 100 µM | UO-31 > 100 µM

O=C1c2ccc3c4ccccc4n(Cc4ccccc4)c3c2C(=O)N1c1ccccc1
inactive: CCRF-CEM 1.88 µM | COLO 205 3.52 µM | EKVX 17.5 µM | HT-29 16.4 µM | IGROV-1 17.8 µM | KM12 15.5 µM | M14 14.8 µM | NCI-H522 2.62 µM | OVCAR-4 8.3 µM | OVCAR-8 15.6 µM | RXF 393 12.7 µM | SF-268 19.9 µM | SF-295 14.7 µM | SK-OV-3 24.9 µM | UACC-257 15.8 µM | UO-31 16.5 µM

CCCCCN(CCCCC)C(=O)[C@H](CCC(=O)OCc1ccccc1)NC(=O)c1cc2ccccc2[nH]1
inactive: CCRF-CEM > 100 µM | COLO 205 > 100 µM | EKVX > 100 µM | HT-29 > 100 µM | IGROV-1 > 100 µM | KM12 > 100 µM | M14 > 100 µM | NCI-H522 > 100 µM | OVCAR-4 > 100 µM | OVCAR-8 > 100 µM | RXF 393 > 100 µM | SF-268 > 100 µM | SF-295 > 100 µM | SK-OV-3 > 100 µM | UACC-257 > 100 µM | UO-31 > 100 µM

O=C(NCc1ccc2ccc3cccnc3c2n1)c1ccc[n+](Cc2ccccc2)c1
inactive: CCRF-CEM > 100 µM | COLO 205 > 100 µM | EKVX > 100 µM | HT-29 98.6 µM | IGROV-1 > 100 µM | KM12 91.4 µM | M14 > 100 µM | NCI-H522 > 100 µM | OVCAR-4 > 100 µM | OVCAR-8 > 100 µM | RXF 393 > 100 µM | SF-268 > 100 µM | SF-295 > 100 µM | SK-OV-3 > 100 µM | UACC-257 > 100 µM | UO-31 > 100 µM

COC(=O)C(C(=O)C(=O)Nc1cccc([N+](=O)[O-])c1)c1nc2ccc([N+](=O)[O-])cc2nc1O (stereo unspecified)
inactive: CCRF-CEM > 100 µM | COLO 205 > 100 µM | EKVX > 100 µM | HT-29 > 100 µM | IGROV-1 > 100 µM | KM12 > 100 µM | M14 > 100 µM | NCI-H522 > 100 µM | OVCAR-4 > 100 µM | OVCAR-8 > 100 µM | RXF 393 > 100 µM | SF-268 > 100 µM | SF-295 > 100 µM | SK-OV-3 > 100 µM | UACC-257 > 100 µM | UO-31 > 100 µM

C[N+](C)(C)CC(=O)N/N=C(\C(=O)NC1=C(Cl)C(=O)c2ccccc2C1=O)C(C#N)c1csc(-c2ccc([N+](=O)[O-])cc2)n1 (stereo unspecified)
inactive: CCRF-CEM > 100 µM | COLO 205 > 100 µM | EKVX 48.2 µM | HT-29 > 100 µM | IGROV-1 > 100 µM | KM12 > 100 µM | M14 > 100 µM | NCI-H522 > 100 µM | OVCAR-4 > 100 µM | OVCAR-8 > 100 µM | RXF 393 > 100 µM | SF-268 > 100 µM | SF-295 > 100 µM | SK-OV-3 > 100 µM | UACC-257 > 100 µM | UO-31 > 100 µM
